Measurements published in patent US12582654B2, “Cyano-substituted pyridine and cyano-substituted pyrimidine compound and preparation method therefor and application thereof” (BEIJING SCITECH-MQ PHARMACEUTICALS LIMITED, priority 2019, dated 2026).

Experiments:
FGFR4 kinase = FGFR4 kinase (Homo sapiens, UniProt P22455); assay: Inhibition of FGFR4 kinase activity (ULight-labeled JAK-1 peptide, EU665/EU615 reading); assay type: biochemical; conditions: FGFR4 kinase 3.85 nM, ATP 100 μM, enzymatic reaction 2 hours
In short: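 TR-FRET kinase assay using 3.85 nM FGFR4, 100 μM ATP and 100 nM ULight-JAK-1 (Tyr1023) peptide; 5 min enzyme–compound preincubation, then 2 h at room temperature. Compounds at 11 3-fold dilutions from 2.5 μM down to 0.042 nM, 1% DMSO. IC50 from EU665/EU615 ratio inhibition curves.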

FGFR4 V550L kinase = FGFR4 V550L kinase (Homo sapiens, UniProt P22455, V550L); assay: Inhibition of FGFR4 V550L mutant kinase activity (ULight-labeled PolyGT, EU665/EU615 reading); assay type: biochemical; conditions: FGFR4 V550L kinase 1 nM, ATP 10 μM, enzymatic reaction 2 hours
In short: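 TR-FRET kinase assay: 1 nM FGFR4 V550L, 10 μM ATP, 100 nM ULight-PolyGT substrate, 2 h at room temperature after 5 min compound–enzyme preincubation, 1% DMSO. Compound tested as 11-point 3-fold dilution from 2.5 μM to 0.042 nM final. Signal as EU665/EU615 ratio; IC50 fitted from % inhibition.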

Ba/F3 ETV6-FGFR4 cells = molecular target: T1, Ba/F3 ETV6-FGFR4 cells (Homo sapiens, UniProt P22455); assay: Inhibition of cell proliferation (CCK-8), Ba/F3 ETV6-FGFR4 cells; assay type: cell-based; conditions: 72 hours of incubation, read-out: Ba/F3 ETV6-FGFR4 IC50
T1 construct: fused on or other part: N-terminal part of ETV6 (TEL), the oligomerising partner that makes the FGFR4 kinase constitutively active; P41212 (Transcription factor ETV6)
In short: (§1)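 Ba/F3 cells expressing ETV6-FGFR4 or ETV6-FGFR4-V550L exposed for 72 h to 9 concentrations from 4-fold serial dilution (0.25% DMSO final). Viability by CCK-8, OD 450 nm after 1–2 h at 37 °C, relative to untreated and cell-free blanks; IC50 from curve fitting.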

[1] = molecular target: T2, Ba/F3 ETV6-FGFR4-V550L cells (Homo sapiens, UniProt P22455, V550L, cells depend on it); assay: Inhibition of cell proliferation (CCK-8), Ba/F3 ETV6-FGFR4-V550L cells; assay type: cell-based; conditions: 72 hours of incubation, read-out: Ba/F3 ETV6-FGFR4-V550L IC50
T2 construct: fused on or other part: N-terminal part of ETV6 (TEL), the oligomerising partner of the fusion; already named as the first entry; P41212 (Transcription factor ETV6)
In short: as §1

T1 sequence (P22455 whole entry, change not shown, the tested form may be a part): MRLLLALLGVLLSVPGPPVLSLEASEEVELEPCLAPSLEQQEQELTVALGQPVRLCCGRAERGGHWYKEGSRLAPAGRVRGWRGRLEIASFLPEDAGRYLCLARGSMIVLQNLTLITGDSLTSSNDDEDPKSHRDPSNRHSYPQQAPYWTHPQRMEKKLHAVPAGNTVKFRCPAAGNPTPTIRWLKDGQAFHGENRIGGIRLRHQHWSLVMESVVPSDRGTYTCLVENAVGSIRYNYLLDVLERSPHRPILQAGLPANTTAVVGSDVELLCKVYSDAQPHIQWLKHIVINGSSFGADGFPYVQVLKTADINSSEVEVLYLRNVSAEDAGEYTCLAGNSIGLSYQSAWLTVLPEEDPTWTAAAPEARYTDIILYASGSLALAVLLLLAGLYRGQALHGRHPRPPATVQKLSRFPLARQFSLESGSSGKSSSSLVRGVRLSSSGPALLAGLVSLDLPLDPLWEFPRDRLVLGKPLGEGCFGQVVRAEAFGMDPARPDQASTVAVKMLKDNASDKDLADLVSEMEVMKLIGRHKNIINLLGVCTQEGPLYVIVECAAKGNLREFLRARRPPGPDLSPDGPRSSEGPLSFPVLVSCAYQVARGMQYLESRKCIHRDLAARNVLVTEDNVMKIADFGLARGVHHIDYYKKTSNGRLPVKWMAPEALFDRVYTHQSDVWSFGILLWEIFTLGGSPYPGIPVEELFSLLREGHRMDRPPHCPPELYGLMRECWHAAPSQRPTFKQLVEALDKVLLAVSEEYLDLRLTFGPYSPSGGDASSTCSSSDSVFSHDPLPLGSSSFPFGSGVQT
Sequence of FGFR4 kinase (P22455 22-802): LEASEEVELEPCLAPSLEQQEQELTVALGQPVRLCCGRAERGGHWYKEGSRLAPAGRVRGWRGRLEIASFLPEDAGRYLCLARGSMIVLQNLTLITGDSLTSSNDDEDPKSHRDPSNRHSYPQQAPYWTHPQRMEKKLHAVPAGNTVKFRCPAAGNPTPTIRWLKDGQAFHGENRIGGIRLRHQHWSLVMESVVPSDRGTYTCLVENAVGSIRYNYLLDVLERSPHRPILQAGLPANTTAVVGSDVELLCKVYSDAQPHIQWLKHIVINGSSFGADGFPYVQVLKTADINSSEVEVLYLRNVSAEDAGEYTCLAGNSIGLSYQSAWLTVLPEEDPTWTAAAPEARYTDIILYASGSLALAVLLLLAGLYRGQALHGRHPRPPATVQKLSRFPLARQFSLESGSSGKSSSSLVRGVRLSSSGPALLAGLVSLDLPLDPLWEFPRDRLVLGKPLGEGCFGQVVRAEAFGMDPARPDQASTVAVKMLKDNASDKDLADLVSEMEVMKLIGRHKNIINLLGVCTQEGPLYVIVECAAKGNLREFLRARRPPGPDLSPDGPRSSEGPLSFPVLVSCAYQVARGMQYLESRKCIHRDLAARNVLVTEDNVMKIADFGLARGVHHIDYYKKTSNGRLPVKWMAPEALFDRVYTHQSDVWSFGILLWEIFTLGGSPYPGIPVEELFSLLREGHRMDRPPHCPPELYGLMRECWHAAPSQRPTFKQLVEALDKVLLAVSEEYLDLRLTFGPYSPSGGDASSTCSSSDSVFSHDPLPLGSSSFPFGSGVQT
Sequence of FGFR4 V550L kinase (P22455 22-802 V550L): as the sequence (P22455 22-802) above, with V529L counted along it
T2 sequence (P22455 whole entry V550L, the tested form may be a part): as the sequence (P22455 whole entry, change not shown, the tested form may be a part) above, with V550L counted along it

| Compound | IC50 (FGFR4 kinase) [nM] | IC50 (FGFR4 V550L kinase) [nM] | GI50 (Ba/F3 ETV6-FGFR4 cells) [nM] | GI50 [1] [nM] |
| --- | --- | --- | --- | --- |
| C=CC(=O)Nc1cc(N2CCN(CC)CC2)ccc1Nc1ncc(C#N)c(Nc2ccc(C(F)(F)F)cc2OC(C)C)n1 [Example 34, N-(2-((5-cyano-4-((2-isopropoxy-4-(trifluoromethyl)phenyl)amino)pyrimidin-2-yl)amino)-5-(4-ethylpiperazin-1-yl)phenyl) acrylamide] | 50 to 100 | 10 to 50 | 10 to 50 | 10 to 50 |
| C=CC(=O)Nc1cc(N2CCN(CC)CC2)ccc1Nc1ncc(C#N)c(Nc2ccc(CCC)cc2OC(C)C)n1 [Example 38, N-(2-((5-cyano-4-((2-isopropoxy-4-propylphenyl)amino)pyrimidin-2-yl)amino)-5-(4-ethylpiperazin-1-yl)phenyl) acrylamide] | 50 to 100 | 50 to 100 | 10 to 50 | 10 to 50 |
| C=CC(=O)Nc1cc(N2CCN(CC)CC2)ccc1Nc1ncc(C#N)c(Nc2ccc(S(C)(=O)=O)cc2OC(C)C)n1 [Example 35, N-(2-((5-cyano-4-((2-isopropoxy-4-(methylsulfonyl)phenyl)amino)pyrimidin-2-yl)amino)-5-(4-ethylpiperazin-1-yl)phenyl) acrylamide] | 10 to 50 | 10 to 50 | 10 to 50 | 10 to 50 |
| C=CC(=O)Nc1cc(N2CCC(N3CCN(C)C(=O)C3)CC2)ccc1Nc1ncc(C#N)c(Nc2ccc(F)cc2OC(C)C)n1 [Example 45, N-(2-((5-cyano-4-((4-fluoro-2-isopropoxyphenyl)amino)pyrimidin-2-yl)amino)-5-(4-(4-methyl-3-oxopiperazin-1-yl)piperidin-1-yl)phenyl) acrylamide] | 10 to 50 | 10 to 50 | ≤ 10 | ≤ 10 |
| C=CC(=O)Nc1cc(N2CCC(N3CCN(C)CC3)CC2)c(F)cc1Nc1ncc(C#N)c(Nc2ccccc2OC(C)C)n1 [Example 20, N-(2-((5-cyano-4-((2-isopropoxyphenyl)amino)pyrimidin-2-yl)amino)-4-fluoro-5-(4-(4-methylpiperazin-1-yl)piperidin-1-yl)phenyl) acrylamide] | 10 to 50 | 10 to 50 | ≤ 10 | ≤ 10 |
| C=CC(=O)Nc1cc(N2CCC(N3CCCC3)CC2)c(C)cc1Nc1ncc(C#N)c(Nc2ccccc2OC(C)C)n1 [Example 10, N-(2-((5-cyano-4-((2-isopropoxyphenyl)amino)pyrimidin-2-yl)amino)-4-methyl-5-(4-(pyrrolidin-1-yl)piperidin-1-yl)phenyl) acrylamide] | 10 to 50 | 10 to 50 | ≤ 10 | 10 to 50 |
| C=CC(=O)Nc1cc(N2CCN(CC)CC2)ccc1Nc1ncc(C#N)c(Nc2c(C)cccc2OC(C)C)n1 [Example 22, N-(2-((5-cyano-4-((2-isopropoxy-6-methylphenyl)amino)pyrimidin-2-yl)amino)-5-(4-ethylpiperazin-1-yl)phenyl) acrylamide] | 100 to 1000 | 100 to 1000 | 100 to 1000 | 100 to 1000 |
| C=CC(=O)Nc1cc(N2CCN(C)CC2)c(C)cc1Nc1ncc(C#N)c(Nc2ccccc2OC(C)C)n1 [Example 7, N-(2-((5-cyano-4-((2-isopropoxyphenyl)amino)pyrimidin-2-yl)amino)-4-methyl-5-(4-methylpiperazin-1-yl)phenyl) acrylamide] | 50 to 100 | 10 to 50 | ≤ 10 | 10 to 50 |
| C=CC(=O)Nc1cc(N2CCC(N3CCN(C)CC3)CC2)ccc1Nc1ncc(C#N)c(Nc2ccc(C(=O)O)cc2OC(C)C)n1 [Example 52, 4-((2-((2-acrylamido-4-(4-(4-methylpiperazin-1-yl)piperidin-1-yl)phenyl)amino)-5-cyanopyrimidin-4-yl)amino)-3-isopropoxybenzoic acid] | ≤ 10 | ≤ 10 | 100 to 1000 | 100 to 1000 |
| C=CC(=O)Nc1cc(N2CCC(N3CCN(C)CC3)CC2)ccc1Nc1ncc(C#N)c(Nc2ccccc2CC(C)C)n1 [Example 79, N-(2-((5-cyano-4-((2-isobutylphenyl)amino)pyrimidin-2-yl)amino)-5-(4-(4-methylpiperazin-1-yl)piperidin-1-yl)phenyl)acrylamide] | 10 to 50 | 50 to 100 | 10 to 50 | 10 to 50 |

The next lines start with the values.

| IC50 (FGFR4 kinase) [nM] | IC50 (FGFR4 V550L kinase) [nM] | GI50 (Ba/F3 ETV6-FGFR4 cells) [nM] | GI50 [1] [nM] | Compound |
| --- | --- | --- | --- | --- |
| ≤ 10 | ≤ 10 | ≤ 10 | ≤ 10 | C=CC(=O)Nc1cc(N2CCC(N(C)CCSC)CC2)ccc1Nc1ncc(C#N)c(Nc2ccccc2OC(C)C)n1 [Example 73] |
| 10 to 50 | ≤ 10 | ≤ 10 | ≤ 10 | C=CC(=O)Nc1cc(N2CCC(N(C)CC(C)(C)O)CC2)ccc1Nc1ncc(C#N)c(Nc2ccccc2OC(C)C)n1 [Example 67, N-(2-((5-cyano-4-((2-isopropoxyphenyl)amino)pyrimidin-2-yl)amino)-5-(4-((2-hydroxy-2-methylpropyl) (methyl)amino)piperidin-1-yl)phenyl) acrylamide] |
| ≤ 10 | ≤ 10 | ≤ 10 | ≤ 10 | C=CC(=O)Nc1cc(N2CCC(N(C)C3CCOC3)CC2)ccc1Nc1ncc(C#N)c(Nc2ccccc2OC(C)C)n1 (stereo not drawn) [Example 77, N-(2-((5-cyano-4-((2-isopropoxyphenyl)amino)pyrimidin-2-yl)amino)-5-(4-(methyl (tetrahydrofuran-3-yl)amino)piperidin-1-yl)phenyl) acrylamide] |
| 10 to 50 | 10 to 50 | ≤ 10 | ≤ 10 | C=CC(=O)Nc1cc(N2CCC(N(C)C3CCC3)CC2)ccc1Nc1ncc(C#N)c(Nc2ccccc2OC(C)C)n1 [Example 62, N-(2-((5-cyano-4-((2-isopropoxyphenyl)amino)pyrimidin-2-yl)amino)-5-(4-(cyclobutyl(methyl)amino)piperidin-1-yl)phenyl) acrylamide] |
| 50 to 100 | ≤ 10 | ≤ 10 | ≤ 10 | C=CC(=O)Nc1cc(N2CCN(CC)CC2)ccc1Nc1ncc(C#N)c(Nc2cc(F)ccc2OC(C)C)n1 [Example 23, N-(2-((5-cyano-4-((5-fluoro-2-isopropoxyphenyl)amino)pyrimidin-2-yl)amino)-5-(4-ethylpiperazin-1-yl)phenyl) acrylamide] |
| ≤ 10 | ≤ 10 | 100 to 1000 | 50 to 100 | C=CC(=O)Nc1cc(N2CCN(CC)CC2)ccc1Nc1ncc(C#N)c(Nc2ccc(O)cc2OC(C)C)n1 [Example 28, N-(2-((5-cyano-4-((4-hydroxy-2-isopropoxyphenyl)amino)pyrimidin-2-yl)amino)-5-(4-ethylpiperazin-1-yl)phenyl) acrylamide] |
| 10 to 50 | ≤ 10 | ≤ 10 | ≤ 10 | C=CC(=O)Nc1cc(N2CCC(N3CCN(CCOC)CC3)CC2)ccc1Nc1ncc(C#N)c(Nc2ccccc2OC(C)C)n1 [Example 58, N-(2-((5-cyano-4-((2-isopropoxyphenyl)amino)pyrimidin-2-yl)amino)-5-(4-(4-(2-methoxyethyl)piperazin-1-yl)piperidin-1-yl)phenyl) acrylamide] |
| 10 to 50 | ≤ 10 | ≤ 10 | ≤ 10 | C=CC(=O)Nc1cc(N2CCC(N(C)CCO)CC2)ccc1Nc1ncc(C#N)c(Nc2ccccc2OC(C)C)n1 [Example 60, N-(2-((5-cyano-4-((2-isopropoxyphenyl)amino)pyrimidin-2-yl)amino)-5-(4-((2-hydroxyethyl) (methyl)amino)piperidin-1-yl)phenyl) acrylamide] |
| 10 to 50 | ≤ 10 | ≤ 10 | ≤ 10 | C=CC(=O)Nc1cc(N2CCC(N3CCC(O)CC3)CC2)ccc1Nc1ncc(C#N)c(Nc2ccccc2OC(C)C)n1 [Example 65, N-(2-((5-cyano-4-((2-isopropoxyphenyl)amino)pyrimidin-2-yl)amino)-5-(4-hydroxy-[1,4-bipiperidin]-1′-yl)phenyl) acrylamide] |
| 10 to 50 | ≤ 10 | ≤ 10 | ≤ 10 | C=CC(=O)Nc1cc(N2CCC(N(C)C)CC2)ccc1Nc1ncc(C#N)c(Nc2ccccc2OC(C)C)n1 [Example 2, N-(2-((5-cyano-4-((2-isopropoxyphenyl)amino)pyrimidin-2-yl)amino)-5-(4-(dimethylamino)piperidin-1-yl)phenyl) acrylamide] |
| ≤ 10 | ≤ 10 | ≤ 10 | ≤ 10 | C=CC(=O)Nc1cc(N2CCN(C3CCN(C)CC3)CC2)ccc1Nc1ncc(C#N)c(Nc2ccccc2OC(C)C)n1 [Example 49, N-(2-((5-cyano-4-((2-isopropoxyphenyl)amino)pyrimidin-2-yl)amino)-5-(4-(1-methylpiperidin-4-yl)piperazin-1-yl)phenyl) acrylamide] |
